Results from patent US20080300231A1, “Antibacterial amide macrocycles VI” (priority 2005, published 2008).

Legend:
Assay type in all cases: cell-based
S. aureus 133 = assay: Minimum inhibitory concentration (MIC), S. aureus 133; settings: S. aureus 133
Description: (§1) Determination of the Minimum Inhibitory Concentration (MIC)
(§2) The minimum inhibitory concentration (MIC) is the minimum concentration of an antibiotic with which the growth of a test microbe is inhibited over 18-24 h. The inhibitor concentration can in these cases be determined by standard microbiological methods (see, for example, The National Committee for Clinical Laboratory Standards. Methods for dilution antimicrobial susceptibility tests for bacteria that grow aerobically; approved standard-fifth edition. NCCLS document M7-A5 [ISBN 1-56238-394-9]. NCCLS, 940 West Valley Road, Suite 1400, Wayne, Pa. 19087-1898 USA, 2000). The MIC of the compounds of the invention is determined in the liquid dilution test on the 96-well microtitre plate scale. The bacterial microbes are cultivated in a minimal medium (18.5 mM Na2HPO4, 5.7 mM KH2PO4, 9.3 mM NH4Cl, 2.8 mM MgSO4, 17.1 mM NaCl, 0.033 μg/ml of thiamine hydrochloride, 1.2 μg/ml of nicotinic acid, 0.003 μg/ml of biotin, 1% glucose, 25 μg/ml of each proteinogenic amino acid with the exception of phenylalanine; [H.-P. Kroll; unpublished]) with addition of 0.4% BH broth (test medium). In the case of Enterococcus faecium L4001, heat-inactivated fetal calf serum (FCS; GibcoBRL, Germany) is added to the test medium in a final concentration of 10%. Overnight cultures of the test microbes are diluted to an OD578 of 0.001 (to 0.01 in the case of enterococci) in fresh test medium, and incubated 1:1 with dilutions of the test substances (1:2 dilution steps) in test medium (200 μl final volume). The cultures are incubated at 37° C. for 18-24 hours; enterococci in the presence of 5% CO2
(§3) The lowest substance concentration in each case at which no visible bacterial growth occurs any more is defined as the MIC.
(§4) Alternative Method for Determining the Minimum Inhibitory Concentration (MIC)
(§5) The minimum inhibitory concentration (MIC) is the minimum concentration of an antibiotic with which the growth of a test microbe is inhibited over 18-24 h. The inhibitor concentration can in these cases be determined by standard microbiological methods with modified medium in an agar dilution test (see, for example, The National Committee for Clinical Laboratory Standards. Methods for dilution antimicrobial susceptibility tests for bacteria that grow aerobically; approved standard-fifth edition. NCCLS document M7-A5 [ISBN 1-56238-394-9]. NCCLS, 940 West Valley Road, Suite 1400, Wayne, Pa. 19087-1898 USA, 2000). The bacterial microbes are cultivated on 1.5% agar plates which contain 20% defibrinated horse blood. The test microbes, which are incubated overnight on Columbia blood agar plates (Becton-Dickinson), are diluted in PBS, adjusted to a microbe count of about 5×10^5 microbes/ml and placed dropwise (1-3 μl) on test plates. The test substances comprise different dilutions of the test substances (1:2 dilution steps). The cultures are incubated at 37° C. in the presence of 5% CO2 for 18-24 hours.
(§6) The lowest substance concentration in each case at which no visible bacterial growth occurred any more is defined as the MIC and is reported in μg/ml.

S. aureus RN4220 = assay: Resistance rate of S. aureus RN4220 on biphenomycin B agar plate; settings: agar plate containing 2 μg/ml biphenomycin B (10×MIC), 37° C. overnight
Description: (§7) The S. aureus strain RN4220Bi^R is isolated in vitro. […] Whereas about 1×10^7 cells grow on the antibiotic-free plate, about 100 colonies grow on the antibiotic-containing plate, corresponding to a resistance rate of 1×10^5. Some of the colonies grown on the antibiotic-containing plate are tested for the biphenomycin B MIC. One colony with a MIC of >50 μM is selected for further use, and the strain is referred to as RN4220Bi^R.

S. aureus T17 = assay: Minimum inhibitory concentration (MIC), biphenomycin-resistant S. aureus T17
Description: as §1, §2, §3, §4, §5, §6
The S. aureus strain T17 is isolated in vivo. CFW1 mice are infected intraperitoneally with 4×10^7 S. aureus 133 cells per mouse. 0.5 h after the infection, the animals are treated intravenously with 50 mg/kg biphenomycin B. The kidneys are removed from the surviving animals on day 3 after the infection. After homogenization of the organs, the homogenates are plated out as described for RN4220Bi^R on antibiotic-free and antibiotic-containing agar plates and incubated at 37° C. overnight. […] About 20 of these colonies are tested for the biphenomycin B MIC, and a colony with a MIC of >50 μM is selected for further cultivation, and the strain is referred to as T17.

S. aureus RN4220Bi^R = assay: MIC against biphenomycin-resistant S. aureus strain RN4220Bi^R; settings: colony selected as strain RN4220Bi^R
Description: as §7

Q: Which results are given for NC[C@H](O)C[C@@H]1NC(=O)[C@@H](N)Cc2cc(ccc2O)-c2ccc(O)c(c2)C[C@@H](C(=O)O)NC1=O [Biphenomycin B, biphenomycin B, reference compound]?
A: MIC S. aureus 133 (S. aureus 133): <0.03 µg/mL; resistance rate (S. aureus RN4220): 1×10^5; MIC S. aureus T17 (S. aureus T17; biphenomycin-resistant S. aureus T17): >32 µg/mL; MIC (S. aureus T17; colony from kidney selected as strain T17): > 50 µM; MIC (S. aureus RN4220Bi^R): > 50 µM
